Data as given in PMC9658513, “Discovery of Compounds That Selectively Repress the Amyloidogenic Processing of the Amyloid Precursor Protein: Design, Synthesis and Pharmacological Evaluation of Diphenylpyrazoles” (International Journal of Molecular Sciences, 2022).

Assays:
Type in all cases: cell-based, human
[1] = in vitro; settings: human
Description: Cytotoxicity was measured using 3-(4,5-dimethylthiazol-2-yl)-5-(3-carboxymethoxyphenyl)-2-(4-sulfophenyl)-2H-tetrazolium (MTS) tests. SY5Y-APP^695WT cells were plated in a 96-well plate at 3 × 10^4 cells per well and allowed to attach for 24 h. Cells were then incubated for 72 h with 100 µL of DMEM with 10% SVF containing (or not) the defined concentration of drugs. Cytotoxicity was determined by using the colorimetric MTS assay (Cell Titer 96® Aqueous One Solution Cell Proliferation Assay-MTS Promega, Madison, WI, USA) according to the manufacturer’s instructions. Absorbance was read at 490 nm.

[2] = system: AICD (APP intracellular domain); assay: AICD level by Western blotting in SY5Y-APP^WT cells; settings: Homo sapiens, concentration increasing AICD 20-fold vs untreated control, read-out: AICD (C20)
Description: (§1) The final and selected intermediate compounds were evaluated for their ability to modulate APP processing in the SH-SY5Y human neuroblastoma cell line stably expressing the neuronal isoform of human wild-type APP^695 (SY5Y-APP^WT), a well-established model for the study of APP metabolism. APP carboxy-terminal fragments (αCTFs and AICD) levels were assessed by Western blotting (WB). The effect of the reference and test compounds on αCTFs and AICD is expressed as the intensity of corresponding WB bands. The concentration of compounds able to increase 20-times αCTFs and AICD (C20) when compared to the control condition was calculated. Selected compounds were also evaluated for their ability to modulate the secretion of soluble APP fragments (sAPPα and sAPPβ). Aβ1–x levels (Aβ1–40 and Aβ1–42) after treatment with the reference and tested compounds were measured in the cell media by ELISA (Table 1). […] Selected hit compounds were then further evaluated for their ability to decrease the level of N-truncated Aβ peptides (Aβx–38, Aβx–40, and Aβx–42).
(§2) The human neuroblastoma cell line SY5Y-APP^695WT was maintained in Dulbecco’s modified Eagle medium (DMEM, high glucose, pyruvate—GIBCO, Life Technologies, Carlsbad, CA, USA) supplemented with 10% fetal bovine serum, 2 mM L-glutamine, 1 mM non-essential amino acids and penicillin/streptomycin (GIBCO, Life Technologies, Carlsbad, CA, USA) at 37 °C in a 5% CO2 humidified incubator [36]. For compound treatment, a 10 mM stock solution was diluted in freshly supplemented DMEM medium to obtain the precise final concentration of the drug. Cells were plated at a density of 5 × 10^5 cells per well into 12-well plates and cultured with 1 mL supplemented DMEM cell medium for 24 h before compound exposure. The following day, the cell medium was replaced with fresh medium containing the compounds diluted at the indicated concentrations. Cells were treated for 24 h. At the end of the treatments, the cell medium was collected and kept at −80 °C until use, cells were rinsed once with PBS and extracted in 100 µL of Laemmli buffer (10 mM Tris, 20% glycerol, and 2% sodium dodecyl sulfate) using a cell-scraper. The cell lysate was further sonicated (30 pulses of 0.5 s, 60 Hz) for 5 min. Total protein concentration was determined using the Pierce BCA Protein Assay Kit (Thermo Scientific, Waltham, MA, USA) according to the manufacturer’s instructions. Samples were stored at −80 °C until analysis.
(§3) Cell protein lysates were prepared for Western blot analysis by diluting the sample with 1 volume of NuPAGE® lithium dodecyl sulfate (LDS) 2X sample buffer supplemented with 20% NuPAGE® sample reducing agents (Invitrogen). Samples were heated for 10 min at 100 °C. Ten µg of total proteins per well were loaded onto precast 4–12% Criterion XT Bis-Tris polyacrylamide gels (Bio-Rad) and electrophoresis was achieved after applying a tension of 150 V for 90 min using a Criterion electrophoresis cell with the NuPAGE® MOPS SDS running buffer (1X). Proteins were transferred to a nitrocellulose membrane of […] pore size (G&E Healthcare, Madison, WI, USA) using the Criterion blotting system and applying a tension of 100 V for 45 min. To resolve proteins of low molecular weights such as carboxy-terminal fragments of APP, 12% Criterion XT Bis-Tris polyacrylamide gels (Bio-Rad, Hercules, CA, USA) were used, and electrophoresis was performed for 70 min at 150 V in a NuPAGE® MES SDS running buffer (1X). Proteins were transferred to a nitrocellulose membrane of 0.2 µm pore size (G&E Healthcare, Madison, WI, USA) at 100 V for 40 min. Molecular weight calibration was achieved using molecular weight markers (Novex and Magic Marks, Life Technologies, Carlsbad, CA, USA). Protein transfer and quality were determined by a reversible Ponceau Red coloration (0.2% xylidine Ponceau Red and 3% trichloroacetic acid). […]

[3] = system: Aβ1–42 peptide secretion; assay: Aβ1–42 secretion in cell medium by ELISA; settings: Homo sapiens; SY5Y-APP^WT cells, 24 h treatment; mean ± SD of at least three experiments in triplicate
Description: as §1, §2
(§4) Conditioned media of SY5Y-APP^695WT collected at the end of treatments were centrifuged at 1000× g for 5 min to eliminate cell debris.
(§5) Aβ1–40/Aβ1–42 peptides, Aβx–38/Aβx–40/Aβx–42, and sAPPα/sAPPβ concentrations in pg/mL were determined, respectively, using amyloid-beta 40 and 42 Human ELISA Kits (Invitrogen), the V-PLEX Plus Aβ Peptide Panel 1 (4G8) Kit (Meso Scale Diagnostics, MSD R©, Rockville, MD, USA), and the sAPPα/sAPPβ Multiplex Kit (Meso Scale Diagnostics, MSD R©, Rockville, MD, USA) according to the manufacturer’s instructions.

[4] = system: αCTF (APP carboxy-terminal fragment); assay: αCTF level by Western blotting in SY5Y-APP^WT cells; settings: Homo sapiens; concentration increasing αCTF 20-fold vs untreated control; SY5Y-APP^WT cells; read-out: αCTF (C20)
Description: as §1, §2, §3

[5] = system: Aβ1–40 peptide secretion; assay: Aβ1–40 secretion in cell medium by ELISA; settings: Homo sapiens; SY5Y-APP^WT cells, 24 h treatment; mean ± SD of at least three experiments in triplicate; read-out: Aβ1–40 IC50
Description: as §1, §2, §4, §5

Structure (SMILES)	CC50 at 72 h [1]	EC (20-fold increase) [2]	IC50 [3]	EC (20-fold increase) [4]	IC50 [5]
CN(C)CCCc1ccc(-c2nn(-c3ccc(CO)cc3)cc2CN(C)C)cc1 [Compound 16, [4-[4-(Dimethylaminomethyl)-3-[4-[3-(dimethylamino)propyl]phenyl] Pyrazol-1-yl]phenyl]methanol]	23 µM	4.6 µM	6.5 ± 1.1 µM	3.6 µM	6.2 ± 0.6 µM
CN(C)CCCc1ccc(-c2nn(-c3ccc(CO)cc3)cc2CCCN(C)C)cc1 [Compound 17, [4-[4-[3-(Dimethylamino)propyl]-3-[4-[3-(dimethylamino)propyl]phenyl] Pyrazol-1-yl]phenyl]methanol]	34 µM	3.6 µM	5.4 ± 2.4 µM	2 µM	4.8 ± 1.2 µM
CN(C)CCCc1ccc(-c2nn(-c3ccc(CN(C)C)cc3)cc2CCCN(C)C)cc1 [Compound 25, 3-[4-[1-[4-(Dimethylaminomethyl)phenyl]-4-[3-(dimethylamino)propyl] Pyrazol-3-yl]phenyl]-N,N-dimethyl-propan-1-amine]	> 100 µM	1.2 µM	3.2 ± 1 µM	1 µM	2.9 ± 0.1 µM
CN(C)CCCc1ccc(-c2nn(-c3cccc(CN(C)C)c3)cc2CN(C)C)cc1 [Compound 26, 3-[4-[4-(Dimethylaminomethyl)-1-[3-(dimethylaminomethyl)phenyl] Pyrazol-3-yl]phenyl]-N,N-dimethyl-propan-1-amine]	> 100 µM	1.8 µM	2.4 ± 0.7 µM	1.3 µM	1.6 ± 0.1 µM
CN(C)CCCc1ccc(-c2nn(-c3cccc(CN(C)C)c3)cc2CCCN(C)C)cc1 [Compound 27, 3-[4-[1-[3-(Dimethylaminomethyl)phenyl]-4-[3-(dimethylamino)propyl] Pyrazol-3-yl]phenyl]-N,N-dimethyl-propan-1-amine]	> 100 µM	1.6 µM	3.8 ± 0.4 µM	1.3 µM	2.6 ± 0.1 µM
CN(C)CCCc1ccc(-c2nn(-c3ccc(CN4CCN(C)CC4)cc3)cc2CN(C)C)cc1 [Compound 28, 3-[4-[4-(Dimethylaminomethyl)-1-[4-[(4-methylpiperazin-1-yl)methyl] Phenyl]pyrazol-3-yl]phenyl]-N,N-dimethyl-propan-1-amine]	> 100 µM	1.7 µM	2.4 ± 0.7 µM	1.2 µM	1.9 ± 0.1 µM
CN(C)CCCc1ccc(-c2nn(-c3ccc(CN4CCN(C)CC4)cc3)cc2CCCN(C)C)cc1 [Compound 29, 3-[4-[4-[3-(Dimethylamino)propyl]-1-[4-[(4-methylpiperazin-1-yl) Methyl]phenyl]pyrazol-3-yl]phenyl]-N,N-dimethyl-propan-1-amine]	> 100 µM	2 µM	5 ± 0.1 µM	1 µM	3.4 ± 0.1 µM
CN(C)CCCc1ccc(-c2nn(-c3cccc(CN4CCN(C)CC4)c3)cc2CN(C)C)cc1 [Compound 30, 3-[4-[4-(Dimethylaminomethyl)-1-[3-[(4-methylpiperazin-1-yl)methyl] Phenyl]pyrazol-3-yl]phenyl]-N,N-dimethyl-propan-1-amine]	> 100 µM	1.6 µM	3.8 ± 0.1 µM	1.2 µM	2.2 ± 0.3 µM
CN(C)CCCc1ccc(-c2nn(-c3cccc(CN4CCN(C)CC4)c3)cc2CCCN(C)C)cc1 [Compound 31, 3-[4-[4-[3-(Dimethylamino)propyl]-1-[3-[(4-methylpiperazin-1-yl)methyl] Phenyl]pyrazol-3-yl]phenyl]-N,N-dimethyl-propan-1-amine]	> 100 µM	1.5 µM	5.8 ± 0.6 µM	1 µM	4 ± 0.6 µM
Cc1cn(-c2cccc(CO)c2)nc1-c1ccc(CN(C)C)cc1 [Compound 48, [3-[3-[4-(Dimethylaminomethyl)phenyl]-4-methyl-pyrazol-1-yl]phenyl] Methanol]	24 µM		> 10 µM		> 10 µM
Cc1cn(-c2cccc(CO)c2)nc1-c1cccc(CN(C)CCCN(C)C)c1 [Compound 58, [3-[3-[3-[[3-(Dimethylamino)propyl-methyl-amino]methyl]phenyl]-4-methyl-pyrazol-1-yl]phenyl]methanol]	20 µM	7.9 µM	3.5 ± 0.7 µM	> 10 µM	3.3 ± 1.3 µM
Cc1cn(-c2cccc(CN(C)C)c2)nc1-c1ccc(CN(C)C)cc1 [Compound 61, {[4-(1-{3-[(Dimethylamino)methyl]phenyl}-4-methyl-1H-pyrazol-3-yl)phenyl]methyl}dimethylamine]	27 µM	2.7 µM	4.1 ± 2.1 µM	2.7 µM	3.9 ± 0.3 µM
Cc1cn(-c2cccc(CN3CCN(C)CC3)c2)nc1-c1ccc(CN(C)C)cc1 [Compound 62, Dimethyl({[4-(4-methyl-1-{3-[(4-methylpiperazin-1-yl)methyl]phenyl}-1H-pyrazol-3-yl)phenyl]methyl})amine]	11 µM	3.5 µM	3.2 ± 0.8 µM	2 µM	2.4 ± 0.2 µM
Cc1cn(-c2cccc(CN(C)CCCN(C)C)c2)nc1-c1ccc(CN(C)C)cc1 [Compound 63, [(4-{1-[3-({[3-(Dimethylamino)propyl](methyl)amino}methyl)phenyl]-4-methyl-1H-pyrazol-3-yl}phenyl)methyl]dimethylamine]	13 µM	1.5 µM	2.7 ± 0.2 µM	1.2 µM	2 ± 0.2 µM
Cc1cn(-c2cccc(CN(C)C)c2)nc1-c1cccc(CN(C)C)c1 [Compound 64, 1-[3-[1-[3-(Dimethylaminomethyl)phenyl]-4-methyl-pyrazol-3-yl]phenyl]-N,N-dimethylmethanamine]	> 100 µM	4.9 µM	4.1 ± 1.6 µM	3.8 µM	3.8 ± 0.2 µM
